According to EP0908457B1, “3-(1,2-benzisothiazol- and isoxazol-5-Y1)-2,4(1H,3H)-pyrimidinedione or thione and 3-(1,2-benzisothiazol- and isoxazol-5-y1)-4(3H)-pyrimidinone or thione herbicidal agents” (BASF AKTIENGESELLSCHAFT, priority 1997, dated 1999):

Tests used:
[1] = test system: Oryza sativa, (L.) Tebonnet; assay: Rice tolerance to post-transplant applications under flooded paddy conditions (Example 187), ORYSAT (Rice, Tebonnet); as to herbicidal effect rating ORYSAT: meaning of each grade not given here
[2] = test system: Echinochloa oryzoides (Ard.) Fritsch.; assay: Preemergence weed control under flooded paddy conditions, ECHORC (Watergrass (Calif.)); type: in vivo; conditions: flooded paddy; as to herbicidal effect rating, ECHORC: meaning of each grade not given here
[3] = test system: Cyperus serotinus, Rottb.; assay: Preemergence weed control under flooded paddy conditions, CYPSE (Flatsedge); type: in vivo; as to herbicidal effect rating, CYPSE: meaning of each grade not given here
[4] = test system: Monochoria vaginalis, Presl.; assay: Preemergence weed control under flooded paddy conditions, MOOVA (Monochoria); type: in vivo; conditions: flooded paddy; as to herbicidal effect rating, MOOVA: meaning of each grade not given here
Sagittaria pygmaea, L. = assay: Preemergence weed control under flooded paddy conditions, SAGPY (Arrowhead (Pygmaea)); type: in vivo; conditions: flooded paddy; as to herbicidal effect rating, SAGPY: meaning of each grade not given here
Cyperus iria = assay: Preemergence weed control under flooded paddy conditions, CYPIR (Rice Flatsedge); type: in vivo; conditions: flooded paddy; as to herbicidal effect rating, CYPIR: meaning of each grade not given here
[5] = 0.1250 kg/ha, rated three to four weeks after treatment
[6] = 0.2500 kg/ha, rated three to four weeks after treatment
[7] = 0.0313 kg/ha, preemergence weeds, rated three to four weeks after treatment
[8] = 0.0625 kg/ha, preemergence weeds, rated three to four weeks after treatment
[9] = 0.1250 kg/ha, preemergence weeds, rated three to four weeks after treatment
[10] = 0.2500 kg/ha, preemergence weeds, rated three to four weeks after treatment
[11] = Rate 0.0320 kg/ha, rated 3-4 weeks after treatment
[12] = Rate 0.0620 kg/ha, rated 3-4 weeks after treatment
[13] = Rate 0.1250 kg/ha, rated 3-4 weeks after treatment
[14] = Rate 0.2500 kg/ha, rated 3-4 weeks after treatment
[15] = Rate 0.0320 kg/ha, preemergence, rated 3-4 weeks after treatment
[16] = Rate 0.0620 kg/ha, preemergence, rated 3-4 weeks after treatment
[17] = Rate 0.1250 kg/ha, preemergence, rated 3-4 weeks after treatment
[18] = Rate 0.2500 kg/ha, preemergence, rated 3-4 weeks after treatment
[19] = Rate 0.5000 kg/ha, preemergence, rated 3-4 weeks after treatment
[20] = Rate 0.0320 kg/ha, rated three to four weeks after treatment
[21] = Rate 0.0620 kg/ha, rated three to four weeks after treatment
[22] = Rate 0.1250 kg/ha, rated three to four weeks after treatment
[23] = Rate 0.2500 kg/ha, rated three to four weeks after treatment
[24] = Rate 0.0320 kg/ha, preemergence, rated three to four weeks after treatment
[25] = Rate 0.0620 kg/ha, preemergence, rated three to four weeks after treatment
[26] = Rate 0.1250 kg/ha, preemergence, rated three to four weeks after treatment
[27] = Rate 0.2500 kg/ha, preemergence, rated three to four weeks after treatment
[28] = 0.0320 kg/ha, preemergence, rated three to four weeks after treatment
[29] = 0.0620 kg/ha, preemergence, rated three to four weeks after treatment
[30] = 0.1250 kg/ha, preemergence, rated three to four weeks after treatment
[31] = 0.2500 kg/ha, preemergence, rated three to four weeks after treatment

SMILES: C=CC(C)OCc1nsc2ccc(-n3c(=O)cc(C(F)(F)F)n(C)c3=O)cc12 (stereo not drawn) [Example 206, 1-Methyl-3-{3-[(1-methylallyloxy)methyl]-1,2-benzisothiazol-5-yl]-6-(trifluoromethyl)-2,4(1H,3H)-pyrimidinedione]
- herbicidal effect rating, ORYSAT (rice tolerance) ([1]; 0.0313 kg/ha, rated three to four weeks after treatment): 5.0
- herbicidal effect rating, ORYSAT (rice tolerance) ([1]; 0.0625 kg/ha, rated three to four weeks after treatment): 6.0
- herbicidal effect rating, ORYSAT (rice tolerance) [1, 5]: 7.0
- herbicidal effect rating, ORYSAT (rice tolerance) [1, 6]: 9.0
- herbicidal effect rating, ECHORC [2, 7]: 0.0
- herbicidal effect rating, ECHORC [2, 8]: 2.0
- herbicidal effect rating, ECHORC [2, 9]: 2.0
- herbicidal effect rating, ECHORC [2, 10]: 9.0
- herbicidal effect rating, CYPSE [3, 7]: 0.0
- herbicidal effect rating, CYPSE [3, 8]: 2.0
- herbicidal effect rating, CYPSE [3, 9]: 7.0
- herbicidal effect rating, CYPSE [3, 10]: 7.0
- herbicidal effect rating, MOOVA [4, 7]: 0.0
- herbicidal effect rating, MOOVA [4, 8]: 0.0
- herbicidal effect rating, MOOVA [4, 9]: 1.0
- herbicidal effect rating, MOOVA [4, 10]: 4.0
- herbicidal effect rating, SAGPY (Sagittaria pygmaea, L.; [7]): 0.0
- herbicidal effect rating, SAGPY (Sagittaria pygmaea, L.; [8]): 0.0
- herbicidal effect rating, SAGPY (Sagittaria pygmaea, L.; [9]): 1.0
- herbicidal effect rating, SAGPY (Sagittaria pygmaea, L.; [10]): 4.0
- herbicidal effect rating, CYPIR (Cyperus iria; [7]): 9.0
- herbicidal effect rating, CYPIR (Cyperus iria; [8]): 9.0
- herbicidal effect rating, CYPIR (Cyperus iria; [9]): 9.0
- herbicidal effect rating, CYPIR (Cyperus iria; [10]): 9.0

SMILES: CON(C)C(=O)/C=C/c1nsc2ccc(-n3c(=O)cc(C(F)(F)F)n(C)c3=O)cc12 [Example 565, 1,2-Benzisothiazole-3-acrylamide, 5-[3,6-dihydro-3-methyl-2,6-dioxo-4-(trifluoromethyl)-1(2H)-pyrimidinyl]-N-methoxy-N-methyl-, (E)-]
- herbicidal effect rating ORYSAT [1, 11]: 0.0
- herbicidal effect rating ORYSAT [1, 12]: 0.0
- herbicidal effect rating ORYSAT [1, 13]: 2.0
- herbicidal effect rating ORYSAT [1, 14]: 3.0
- herbicidal effect rating, ECHORC [2, 15]: 0.0
- herbicidal effect rating, ECHORC [2, 16]: 0.0
- herbicidal effect rating, ECHORC [2, 17]: 0.0
- herbicidal effect rating, ECHORC [2, 18]: 0.0
- herbicidal effect rating, CYPSE [3, 15]: 0.0
- herbicidal effect rating, CYPSE [3, 16]: 0.0
- herbicidal effect rating, CYPSE [3, 17]: 0.0
- herbicidal effect rating, CYPSE [3, 18]: 0.0
- herbicidal effect rating, MOOVA [4, 15]: 9.0
- herbicidal effect rating, MOOVA [4, 16]: 9.0
- herbicidal effect rating, MOOVA [4, 17]: 9.0
- herbicidal effect rating, MOOVA [4, 18]: 9.0
- herbicidal effect rating, SAGPY (Sagittaria pygmaea, L.; [15]): 0.0
- herbicidal effect rating, SAGPY (Sagittaria pygmaea, L.; [16]): 0.0
- herbicidal effect rating, SAGPY (Sagittaria pygmaea, L.; [17]): 0.0
- herbicidal effect rating, SAGPY (Sagittaria pygmaea, L.; [18]): 0.0
- herbicidal effect rating, CYPIR (Cyperus iria; [15]): 0.0
- herbicidal effect rating, CYPIR (Cyperus iria; [16]): 3.0
- herbicidal effect rating, CYPIR (Cyperus iria; [17]): 6.0
- herbicidal effect rating, CYPIR (Cyperus iria; [18]): 6.0

SMILES: Cc1ccc(OC(C)(C)C(=O)OCCCl)c(-c2nsc3ccc(-n4c(=O)cc(C(F)(F)F)n(C)c4=O)cc23)c1 [Example 544, Propionic acid, 2-{{2-{5-[3,6-dihydro-3-methyl-2,6-dioxo-4-(trifluoromethyl)-1(2H)-pyrimidinyl]-1,2-benzisothiazol-3-yl}-p-tolyl}oxy}-2-methyl-, 2-chloroethyl ester]
- herbicidal effect rating ORYSAT [1, 11]: 4.0
- herbicidal effect rating ORYSAT [1, 12]: 9.0
- herbicidal effect rating ORYSAT [1, 13]: 9.0
- herbicidal effect rating ORYSAT [1, 14]: 9.0
- herbicidal effect rating ORYSAT ([1]; Rate 0.5000 kg/ha, rated 3-4 weeks after treatment): 8.0
- herbicidal effect rating, ECHORC [2, 15]: 5.4
- herbicidal effect rating, ECHORC [2, 16]: 5.6
- herbicidal effect rating, ECHORC [2, 17]: 6.4
- herbicidal effect rating, ECHORC [2, 18]: 9.0
- herbicidal effect rating, ECHORC [2, 19]: 9.0
- herbicidal effect rating, CYPSE [3, 15]: 9.0
- herbicidal effect rating, CYPSE [3, 17]: 7.0
- herbicidal effect rating, CYPSE [3, 18]: 9.0
- herbicidal effect rating, CYPSE [3, 19]: 4.0
- herbicidal effect rating, MOOVA [4, 15]: 9.0
- herbicidal effect rating, MOOVA [4, 16]: 9.0
- herbicidal effect rating, MOOVA [4, 17]: 9.0
- herbicidal effect rating, MOOVA [4, 18]: 9.0
- herbicidal effect rating, MOOVA [4, 19]: 9.0
- herbicidal effect rating, SAGPY (Sagittaria pygmaea, L.; [15]): 7.0
- herbicidal effect rating, SAGPY (Sagittaria pygmaea, L.; [16]): 4.0
- herbicidal effect rating, SAGPY (Sagittaria pygmaea, L.; [17]): 8.0
- herbicidal effect rating, SAGPY (Sagittaria pygmaea, L.; [18]): 9.0
- herbicidal effect rating, SAGPY (Sagittaria pygmaea, L.; [19]): 9.0
- herbicidal effect rating, CYPIR (Cyperus iria; [15]): 9.0
- herbicidal effect rating, CYPIR (Cyperus iria; [16]): 9.0
- herbicidal effect rating, CYPIR (Cyperus iria; [17]): 9.0
- herbicidal effect rating, CYPIR (Cyperus iria; [18]): 9.0
- herbicidal effect rating, CYPIR (Cyperus iria; [19]): 9.0

SMILES: Cn1c(C(F)(F)F)cc(=O)n(-c2ccc3snc(C(C#N)=Cc4ccncc4)c3c2)c1=O [Example 596, 1,2-Benzisothiazole-3-acetonitrile, 5-[3,6-dihydro-3-methyl-2,6-dioxo-4-(trifluoromethyl)-1(2H)-pyrimidinyl]-alpha-(4-pyridylmethylene)-]
- herbicidal effect rating ORYSAT [1, 20]: 0.0
- herbicidal effect rating ORYSAT [1, 21]: 3.0
- herbicidal effect rating ORYSAT [1, 22]: 4.0
- herbicidal effect rating ORYSAT [1, 23]: 6.0
- herbicidal effect rating, ECHORC [2, 24]: 0.0
- herbicidal effect rating, ECHORC [2, 25]: 4.0
- herbicidal effect rating, ECHORC [2, 26]: 5.0
- herbicidal effect rating, ECHORC [2, 27]: 7.0
- herbicidal effect rating, CYPSE [3, 24]: 0.0
- herbicidal effect rating, CYPSE [3, 25]: 0.0
- herbicidal effect rating, CYPSE [3, 26]: 0.0
- herbicidal effect rating, CYPSE [3, 27]: 0.0
- herbicidal effect rating, MOOVA [4, 24]: 3.0
- herbicidal effect rating, MOOVA [4, 25]: 4.0
- herbicidal effect rating, MOOVA [4, 26]: 7.0
- herbicidal effect rating, MOOVA [4, 27]: 9.0
- herbicidal effect rating, SAGPY (Sagittaria pygmaea, L.; [24]): 0.0
- herbicidal effect rating, SAGPY (Sagittaria pygmaea, L.; [25]): 0.0
- herbicidal effect rating, SAGPY (Sagittaria pygmaea, L.; [26]): 2.0
- herbicidal effect rating, SAGPY (Sagittaria pygmaea, L.; [27]): 6.0
- herbicidal effect rating, CYPIR (Cyperus iria; [24]): 0.0
- herbicidal effect rating, CYPIR (Cyperus iria; [25]): 0.0
- herbicidal effect rating, CYPIR (Cyperus iria; [26]): 0.0
- herbicidal effect rating, CYPIR (Cyperus iria; [27]): 0.0

SMILES: Cn1c(C(F)(F)F)cc(=O)n(-c2ccc3snc(COCc4ccc(Cl)cc4Cl)c3c2)c1=O [Example 585, 2,4(1H,3H)-Pyrimidinedione, 3-{3-{[(2,4-dichlorobenzyl)oxy]methyl}-1,2-benzisothiazol-5-yl}-1-methyl-6-(trifluoromethyl)-]
- herbicidal effect rating ORYSAT [1, 20]: 1.0
- herbicidal effect rating ORYSAT [1, 21]: 1.5
- herbicidal effect rating ORYSAT [1, 22]: 1.5
- herbicidal effect rating ORYSAT [1, 23]: 1.5
- herbicidal effect rating, ECHORC [2, 24]: 5.0
- herbicidal effect rating, ECHORC [2, 25]: 8.5
- herbicidal effect rating, ECHORC [2, 26]: 8.5
- herbicidal effect rating, ECHORC [2, 27]: 9.0
- herbicidal effect rating, CYPSE [3, 24]: 0.0
- herbicidal effect rating, CYPSE [3, 25]: 0.0
- herbicidal effect rating, CYPSE [3, 26]: 0.0
- herbicidal effect rating, CYPSE [3, 27]: 3.0
- herbicidal effect rating, MOOVA [4, 24]: 3.5
- herbicidal effect rating, MOOVA [4, 25]: 3.5
- herbicidal effect rating, MOOVA [4, 26]: 4.5
- herbicidal effect rating, MOOVA [4, 27]: 9.0
- herbicidal effect rating, SAGPY (Sagittaria pygmaea, L.; [24]): 0.0
- herbicidal effect rating, SAGPY (Sagittaria pygmaea, L.; [25]): 1.5
- herbicidal effect rating, SAGPY (Sagittaria pygmaea, L.; [26]): 2.0
- herbicidal effect rating, SAGPY (Sagittaria pygmaea, L.; [27]): 2.5
- herbicidal effect rating, CYPIR (Cyperus iria; [24]): 2.5
- herbicidal effect rating, CYPIR (Cyperus iria; [25]): 8.5
- herbicidal effect rating, CYPIR (Cyperus iria; [26]): 9.0
- herbicidal effect rating, CYPIR (Cyperus iria; [27]): 9.0

SMILES: Cn1c(C(F)(F)F)cc(=O)n(-c2ccc3snc(C(C)(C)C(=O)NS(C)(=O)=O)c3c2)c1=O [Example 488, 1,2-Benzisothiazole-3-acetamide, 5-[3,6-dihydro-3-methyl-2,6-dioxo-4-(trifluoromethyl)-1(2H)-pyrimidinyl]-alpha,alpha-dimethyl-N-(methylsulfonyl)-]
- ORYSAT herbicidal rating (rice tolerance) ([1]; 0.0320 kg/ha, rated three to four weeks after treatment): 3.0
- ORYSAT herbicidal rating (rice tolerance) ([1]; 0.0620 kg/ha, rated three to four weeks after treatment): 3.0
- ORYSAT herbicidal rating (rice tolerance) [1, 5]: 4.0
- ORYSAT herbicidal rating (rice tolerance) [1, 6]: 4.0
- ECHORC herbicidal rating [2, 28]: 0.0
- ECHORC herbicidal rating [2, 29]: 0.0
- ECHORC herbicidal rating [2, 30]: 0.0
- ECHORC herbicidal rating [2, 31]: 0.0
- CYPSE herbicidal rating [3, 29]: 0.0
- CYPSE herbicidal rating [3, 30]: 0.0
- MOOVA herbicidal rating [4, 28]: 7.0
- MOOVA herbicidal rating [4, 29]: 9.0
- MOOVA herbicidal rating [4, 30]: 9.0
- MOOVA herbicidal rating [4, 31]: 9.0
- SAGPY herbicidal rating (Sagittaria pygmaea, L.; [28]): 0.0
- SAGPY herbicidal rating (Sagittaria pygmaea, L.; [29]): 0.0
- SAGPY herbicidal rating (Sagittaria pygmaea, L.; [30]): 0.0
- SAGPY herbicidal rating (Sagittaria pygmaea, L.; [31]): 0.0
- CYPIR herbicidal rating (Cyperus iria; [28]): 3.0
- CYPIR herbicidal rating (Cyperus iria; [29]): 3.0
- CYPIR herbicidal rating (Cyperus iria; [30]): 4.0
- CYPIR herbicidal rating (Cyperus iria; [31]): 5.0
